In brackets after ≈: the same amount, converted by molar mass.
Experiments:
[1] = amine pH-buffers with low pKa values; cited from earlier work
[2] = cited from earlier work
[3] = Hygroscopicity of crystalline salt in air; assay type: physicochemical; conditions: crystalline substance, absorbs moisture from the air
Procedure: 380.5 g Purified N-decylpyrrolidine (1.8 mole, fw=211.39) is added to 720 mL stirring acetonitrile in a 2 L, 4-neck round-bottom flask that is equipped with a heating mantle, mechanical stirrer, 500 mL addition funnel, reflux condensor and teflon-coated thermocouple. The reaction is carried out under a nitrogen atmosphere with a slow N2 purge. The stirring mixture is heated to 50° C., and 289.1 g freshly distilled 4-fluorobenzyl chloride (2.0 mole, fw=144.58) is added in a dropwise fashion over a period of about 60 minutes. The reaction mixture is then heated to about 80° C. for 8-12 hours and periodically monitored by HPLC (Method 10a) in order to ensure that the starting amine is entirely consumed. The reaction mixture is cooled to room temperature, filtered through sintered-glass and placed on a rotary evaporator to remove the solvent (acetonitrile). 1.0 L Methyl t-butyl ether (MTBE) is added portionwise with mechanical stirring to the sticky orange-yellow reaction residue. Once this mixture is fully suspended in the solvent, it is transferred to a clean 4 L Erlenmeyer flask, and an additional amount of MTBE (1.9 L) is slowly added with stirring. […] A sharp melting point in a glass capillary is measured at 137-138° C. when measured between 90-140° C. at the heating rate of 1.0° C./minute. […]

Solubility in water = conditions: pure water
[4] = Partitioning in two-phase diethyl ether-water extraction; assay type: physicochemical
Procedure: This is a modification of Method A based on the partitioning behavior in a two-phase diethyl ether-water extraction. […] 53.4 g Purified and recrystallized N-(4-fluorobenzyl)-N-decylpyrrolidinium chloride (150 mmole, fw=355.97) is placed in a 250 mL separatory funnel followed by 53.4 g degassed, deionized water. The flask is shaken until a clear, viscous solution is formed (˜1.5 M solution). 25.6 g Trifluoroacetic (225 mmole, fw=114.02) is added to the mixture which is vigorously mixed. Immediately two phases form with the product in the lower layer. 110 mL peroxide-free diether ether is added to the separatory funnel and the mixture is vigorously mixed again. After 2 hours, the phases fully separate with the product in the upper ether phase. The lower phase is discarded and the upper is retained. 55 mL 1% trifluoroacetic acid in distilled water is added, the mixture is vigorously mixed and phases are again allowed to separate. Again, the upper phase is retained, dried over anhydrous magnesium sulfate, filtered and placed on a rotary evaporator in order to remove the ether along with residual HCl, trifluoroacetic acid and water. This procedure yields 59.2 g (91%) of a pure, clear, viscous oil (ionic liquid). This material is suitable for use as a displacer. HPLC purity of the quat cation is essentially identical to the starting material. […]

## CN(C)CCN(C)C [N,N,N′,N′-tetramethylethylene-diamine]
[1]
  pKa: 5.9

## C1CC[C@H]2CCCC[C@@H]2C1 [trans-decalin]
[2]
  solubility in water: < 0.001 mM

## c1ccc2ccccc2c1 [naphthalene]
[2]
  solubility in water: 0.2 mM (≈ 25.6 µg/mL)

## CCCCCCCCCC[N+]1(Cc2ccc(F)cc2)CCCC1.[Cl-] [N-(4-Fluorobenzyl)-N-decylpyrrolidinium Chloride]
[3]
  hygroscopicity: very hygroscopic
Solubility in water
  solubility: 2000 mM
[4]
  partitioning behavior: strongly partitions into the water layer

## CCN1CCNCC1 [N-ethylpiperazine]
[1]
  pKa: 5.0

## C1CCCCC1 [cyclohexane]
[2]
  solubility in water: ~0.01 mM (≈ 0.842 µg/mL)

## CCCCCCCCCC[N+]1(Cc2ccc(F)cc2)CCCC1.O=C([O-])C(F)(F)F [N-(4-Fluorobenzyl)-N-decylpyrrolidinium Trifluoroacetate]
Solubility in water
  solubility: ~120 mM
[4]
  partitioning behavior: strongly partitions into the ether layer

Reference: patent US20140284278A1, “CATIONIC DISPLACER MOLECULES FOR HYDROPHOBIC DISPLACEMENT CHROMATOGRAPHY” (SACHEM, INC., priority 2011, published 2014)
